Assay results reported in patent publication US20230295729A1, “METHODS FOR DETECTING AND TREATING PROGESTERONE-RESISTANT INFERTILITY” (The Feinstein Institutes for Medical Research, priority 2022, published 2023).
“Also recorded” adds a separate entry of the source.

Tests used:
[1] = tested on: endometrial stromal cells (eSCs); assay: Decidualization of menstrual effluent-derived eSCs induced by cAMP ± MPA, IGFBP1 and PRL by ELISA; type: cell-based, human; conditions: for potentiation of decidualization: comparators tested in the same eSC system as quercetin; for cAMP-induced decidualization (IGFBP1 and PRL production): quercetin 25 μM 4 hr before cAMP 0.5 mM for 48 hr, vs vehicle; for cAMP+MPA-induced decidualization (IGFBP1 and PRL production): control- and case-eSCs, quercetin 25 μM 4 hr before cAMP 0.5 mM + 0.1 μM MPA for 48 hr
Description: Methods: eSCs were isolated from menstrual effluent (ME) obtained from healthy controls and surgically diagnosed endometriosis cases. To induce decidualization, passage 2-3 eSCs DMEM 2% MSC-FBS were treated with dibutryl-cAMP (cAMP, 0.5 mM)±10^-7 M medroxyprogesterone acetate (MPA) for 48 hr. eSCs were pre-treated with vehicle or quercetin (25 μM) 4 hr prior to decidualization. PRL and IGFBP1 protein and mRNA in the culture supernatants and cells, respectively, were assessed by ELISA and RT-qPCR, respectively. Endometrial stromal cells (eSCs) were isolated and grown in DMEM 10% MSC-FBS, PSQ, normocin. Passage 2-3 eSCs were split into 96 well plates or 6-well plates in DMEM 10% MSC-FBS. After overnight culture in DMEM 2% MSC-FBS, decidualization of eSCs was induced after exposure to vehicle or 25 μM quercetin for 4 hrs, followed by 0.5 mM cAMP±0.1 μM MPA for 48 hrs. Decidualization was assessed by measuring IGFBP1 and/or PRL levels in the culture supernatants by ELISA. Progesterone sensitivity was also assessed by measuring progesterone-induced genes. Two sample t tests (unpaired or paired) were used to determine significance. Assessment of progesterone sensitive genes eSCs were treated vehicle or 25 μM quercetin for 4h followed by veh or 0.5 mM cAMP+0.1 uM MPA for 6h; RNA was isolated; and qPCR was performed for the P4 sensitives gene: HAND2, or other P4 target genes.
Roughly 30-50% of endometriosis patient experience infertility. The cause of endometriosis and its link to infertility is not completely understood. It has been shown that endometrial stromal cells (eSCs) from patients with endometriosis show decreased decidualization, a progesterone-driven process critical for implantation. Quercetin is a flavonoid with anti-inflammatory and immunomodulatory activities. […] In addition, quercetin improves infertility in patients with polycystic ovary syndrome (PCOS). We assessed the effect of quercetin on decidualization and progesterone sensitivity using eSCs. Methods: eSCs were isolated from menstrual effluent (ME) obtained from healthy controls and surgically diagnosed endometriosis cases. To induce decidualization, passage 2-3 eSCs were treated with dibutryl-cAMP (cAMP, 0.25-0.5 mM)±10^-7M medroxyprogesterone acetate (MPA) for 48 hr. eSCs were pre-treated with vehicle or quercetin (25 μM) 4 hr prior to decidualization. PRL and IGFBP1 protein and mRNA in the culture supernatants and cells, respectively, were assessed by ELISA and RT-qPCR, respectively. Progesterone sensitivity was also assessed by measuring progesterone-induced genes, PLZF and IHH. Two sample t tests (unpaired or paired) were used to determine significance.

[2] = tested on: menstrual effluent-derived eSCs (ME-eSCs); assay: MPA-stimulated gene expression in ME-eSCs of endometriosis cases and controls (qPCR, scRNA-seq); type: cell-based, human
Description: Methods: Low passage (p2-3) menstrual effluent-derived eSCs (ME-eSCs) obtained from women with confirmed endometriosis or healthy controls were stimulated with vehicle or MPA, a stable P4 analogue. qPCR and single cell RNA-seq (scRNA-seq, n=4 controls and 4 cases) were used to measure P4-induced gene expression and identify dysregulated pathways. Subcellular localization of PR isoforms and the PR chaperone protein, FKBP52, was assessed using immunofluorescent microscopy and western blotting of total, nuclear, and cytoplasmic preparations of ME-eSCs±MPA stimulation.

[3] = tested on: endometrial stromal cells; assay: SASP protein expression in endometrial stromal cells by western blotting; type: cell-based, human; conditions: quercetin 25 μM vs vehicle, DMEM 2% FBS, 2 days, confluent cells; normalised to GAPDH
Description: FIGS. 4A-4B: Quercetin-treatment of endometrial stromal cells reduces the senescence-associated secretory phenotype (SASP) and the expression SASP proteins. (4A) Treatment of confluent endometrial stromal cells with vehicle (Veh) vs. quercetin (25 μM, Q+) in DMEM 2% FBS for 2 days alters the expression of SASP proteins (or SASPs, IL-1β, TNF-membrane form [TNF-MF], TNF-soluble form [TNF-SF], MMP3, and Lamin B1 [LamB1*] vs. GAPDH [housekeeping protein for normalization]) by endometrial stromal cells, as determined by western blotting. Relative molecular weight markers (MWM) are shown on the left. (4B) Quantification of Veh-treated vs. Q-treated protein bands are shown in 4B. *Note: All proteins are positive SASPs (increased protein expression positively correlates with senescence), except LAMB1, which is lost with the senescence phenotype. Quercetin reduces senescence-associated secretory phenotype or SASP.

[4] = tested on: patients with polycystic ovary syndrome (PCOS); conditions: cited from earlier work
[5] = tested on: P4 target genes (HAND2, PLZF, IHH) in endometrial stromal cells; assay: Progesterone (P4) target gene expression in eSCs by qPCR after quercetin pre-treatment; type: cell-based, human; conditions: control- and case-eSCs, p<0.05; for HAND2 mRNA expression (P4 target gene): quercetin 25 μM 4 h, then vehicle or 0.5 mM cAMP + 0.1 μM MPA 6 h, qPCR
Description: Endometrial stromal cells (eSCs) were isolated and grown in DMEM 10% MSC-FBS, PSQ, normocin. Passage 2-3 eSCs were split into 96 well plates or 6-well plates in DMEM 10% MSC-FBS. After overnight culture in DMEM 2% MSC-FBS, decidualization of eSCs was induced after exposure to vehicle or 25 μM quercetin for 4 hrs, followed by 0.5 mM cAMP±0.1 μM MPA for 48 hrs. […] Progesterone sensitivity was also assessed by measuring progesterone-induced genes. Two sample t tests (unpaired or paired) were used to determine significance. Assessment of progesterone sensitive genes eSCs were treated vehicle or 25 μM quercetin for 4h followed by veh or 0.5 mM cAMP+0.1 uM MPA for 6h; RNA was isolated; and qPCR was performed for the P4 sensitives gene: HAND2, or other P4 target genes. […] Progesterone sensitivity was also assessed by measuring progesterone-induced genes, PLZF and IHH.

endometrial implants = conditions: rat model of endometriosis; cited from earlier work
[6] = ME-eSCs from cases vs. controls, qPCR
[7] = scRNA-seq, n=4 controls and 4 cases

CC(C)Cc1ccc(C(C)C(=O)O)cc1 (stereo not shown) [ibuprofen, reference compound]
potentiation of decidualization [1]: did not potentiate decidualization

CC(=O)O[C@]1(C(C)=O)CC[C@H]2[C@@H]3C[C@H](C)C4=CC(=O)CC[C@]4(C)[C@H]3CC[C@@]21C [MPA, medroxyprogesterone acetate]
potentiation of cAMP-induced decidualization by addition of MPA ([1]; control-eSCs, 0.1 μM MPA with cAMP, 48 hr): potentiates | MPA-stimulated IHH gene expression [2, 6]: significantly blunted | MPA-stimulated PLZF gene expression [2, 6]: significantly blunted | MPA-induced expression of CEBPD, DKK1, FABP4, MGP, and NNMT [2, 7]: significantly unregulated in controls only | MPA-induced expression of IGFBP5, MALAT1, DIO2, and KRT17 [2, 7]: significantly downregulated in controls only

O=C(O)c1ccccc1O [SA, salicylic acid, reference compound]
potentiation of decidualization [1]: did not potentiate decidualization

O=c1c(O)c(-c2ccc(O)c(O)c2)oc2cc(O)cc(O)c12 [Quercetin, quercetin]
senescence-associated secretory phenotype (SASP) and expression of SASP proteins (IL-1β, TNF-MF, TNF-SF, MMP3, Lamin B1) [3]: reduces | cAMP-induced decidualization (IGFBP1 and PRL production) ([1]; case-eSCs (endometriosis), p<0.05): significantly enhanced; also recorded: increased | cAMP+MPA-induced decidualization (IGFBP1 and PRL production) ([1]; p<0.05): increased | cAMP+MPA-induced decidualization (IGFBP1 and PRL production) ([1]; p<0.05, listed as quercetin): significantly enhanced; also recorded: further enhances | cAMP-induced decidualization (IGFBP1 and PRL production) ([1]; control-eSCs, p<0.02): significantly enhanced; also recorded: increased | infertility in PCOS patients [4]: improves | HAND2 mRNA expression (P4 target gene) [5]: increases | HAND2 mRNA expression (P4 target gene) ([5]; listed as quercetin): significantly increased over vehicle | MPA-induced IHH mRNA expression ([5]; quercetin 25 μM vs vehicle): significantly increased over vehicle | MPA-induced PLZF mRNA expression ([5]; quercetin 25 μM vs vehicle): significantly increased over vehicle | anti-inflammatory effects (endometrial implants): exerted anti-inflammatory effects | growth of endometrial implants (endometrial implants): inhibited
